Assay [1] deals with HUVEC. Briefly: Pro-angiogenic activity in HUVEC assessed as increase in meshes formation after 22 hrs by phase-contrast image analysis. Type of assay: functional, cell-based. The conditions noted are these: Homo sapiens.
For assay [2], the system named is HUVEC. Briefly: Pro-angiogenic activity in HUVEC assessed as increase in tubular network formation at 0.1 ng/ml after 22 hrs by phase-contrast image analysis. As to conditions: Homo sapiens. Type of assay: functional, cell-based.
For assay [3], the system named is HUVEC. Kind of assay: Pro-angiogenic activity in HUVEC assessed as increase in cell proliferation after 96 hrs by DAPI staining-based spectrofluorometric analysis. As to conditions: Homo sapiens. The format is functional.
Assay [4] concerns HUVEC. Kind of assay: Pro-angiogenic activity in HUVEC assessed as increase in cell proliferation at 2500 ng/ml after 96 hrs by DAPI staining-based spectrofluorometric analysis relative to control. Type of assay: functional, Homo sapiens.
Assay [5] has as its system HUVEC. Briefly: […] activity in HUVEC assessed as wound closure at 100 ng/ml after 24 hrs by phase-contrast microscopic analysis. The conditions noted are these: Homo sapiens. Type of assay: functional, cell-based.
For assay [6], the system named is HUVEC. Kind of assay: Pro-angiogenic activity in HUVEC assessed as increase in meshes formation at 0.1 to 10 ng/ml after 22 hrs by phase-contrast image analysis. Type of assay: functional, cell-based. As to conditions: Homo sapiens.
Assay [7] deals with HUVEC. Kind of assay: Effect on cell morphology in HUVEC at 1 to 2500 ng/ml after 24 to 96 hrs by DAPI staining-based spectrofluorometric analysis. Type of assay: functional. The conditions noted are these: Homo sapiens.
The test system of assay [8] is HUVEC. Briefly: Pro-angiogenic activity in HUVEC assessed as increase in tubular network formation at 0.1 ng/ml preincubated for 30 mins followed by ZM 323881 HCl addition and measured after 22 hrs by phase-contrast image analysis. As to conditions: Homo sapiens. The format is functional, cell-based.
Assay [9] has as its system HUVEC. Kind of assay: Pro-angiogenic activity in HUVEC assessed as increase in cell proliferation at 2500 ng/ml after 24 to 72 hrs by DAPI staining-based spectrofluorometric analysis relative to control. Type of assay: functional, Homo sapiens.

Structures are written as SMILES. ≈ marks a conversion by molar mass, not a printed value. Calls of active or inactive are those of the source. The rule behind the calls is not given here.

Among the data in ChEMBL document CHEMBL4382213, “Identification and characterization of agnuside, a natural proangiogenic small molecule” (Eur J Med Chem, 2018) are Activity and EC50 values, retold here.

A word on the EC50: it is the concentration giving half of the maximal effect.

For `O=C(OCC1=C[C@@H](O)[C@@H]2C=CO[C@@H](O[C@@H]3O[C@H](CO)[C@@H](O)[C@H](O)[C@H]3O)[C@H]12)c1ccc(O)cc1` [AGNUSIDE], the Activity result in the assay with HUVEC [1] is “Dose-dependent effect”; with HUVEC [4] it was “<=56%”; in the assay with HUVEC [9], 20 - 30%. Further, the result in the assay with HUVEC [2], in the assay with HUVEC [5] and in the assay on HUVEC [8] was Active. In addition, the EC50 in the assay with HUVEC [3] was found to be 1.38 µg/mL (≈ 2.95 µM). For the same compound, the result with HUVEC [6] and in the assay with HUVEC [7] was inactive.
